Test results reported in patent US12576168B2, “Peptide PET/SPECT probes specific to oncoproteins in tumor extracellular matrix” (CASE WESTERN RESERVE UNIVERSITY, priority 2019, dated 2026).
Ends that are not written are not given here. * marks the point of attachment. DOTA = O=C(O)CN1CCN(CC(=O)O)CCN(CC(=O)*)CCN(CC(=O)O)CC1; AEEA = NCCOCCOCC(=O)O

Key:
Water solubility = format: physicochemical
EDB-FN [1] = target: T1, EDB-FN (Homo sapiens, UniProt P02751); test: ZD2 peptide binding to prostate tissue; set-up: from tissue; host or cells: High-grade and low-grade prostate tumour and normal tissue
T1 sequence (P02751 32-2477): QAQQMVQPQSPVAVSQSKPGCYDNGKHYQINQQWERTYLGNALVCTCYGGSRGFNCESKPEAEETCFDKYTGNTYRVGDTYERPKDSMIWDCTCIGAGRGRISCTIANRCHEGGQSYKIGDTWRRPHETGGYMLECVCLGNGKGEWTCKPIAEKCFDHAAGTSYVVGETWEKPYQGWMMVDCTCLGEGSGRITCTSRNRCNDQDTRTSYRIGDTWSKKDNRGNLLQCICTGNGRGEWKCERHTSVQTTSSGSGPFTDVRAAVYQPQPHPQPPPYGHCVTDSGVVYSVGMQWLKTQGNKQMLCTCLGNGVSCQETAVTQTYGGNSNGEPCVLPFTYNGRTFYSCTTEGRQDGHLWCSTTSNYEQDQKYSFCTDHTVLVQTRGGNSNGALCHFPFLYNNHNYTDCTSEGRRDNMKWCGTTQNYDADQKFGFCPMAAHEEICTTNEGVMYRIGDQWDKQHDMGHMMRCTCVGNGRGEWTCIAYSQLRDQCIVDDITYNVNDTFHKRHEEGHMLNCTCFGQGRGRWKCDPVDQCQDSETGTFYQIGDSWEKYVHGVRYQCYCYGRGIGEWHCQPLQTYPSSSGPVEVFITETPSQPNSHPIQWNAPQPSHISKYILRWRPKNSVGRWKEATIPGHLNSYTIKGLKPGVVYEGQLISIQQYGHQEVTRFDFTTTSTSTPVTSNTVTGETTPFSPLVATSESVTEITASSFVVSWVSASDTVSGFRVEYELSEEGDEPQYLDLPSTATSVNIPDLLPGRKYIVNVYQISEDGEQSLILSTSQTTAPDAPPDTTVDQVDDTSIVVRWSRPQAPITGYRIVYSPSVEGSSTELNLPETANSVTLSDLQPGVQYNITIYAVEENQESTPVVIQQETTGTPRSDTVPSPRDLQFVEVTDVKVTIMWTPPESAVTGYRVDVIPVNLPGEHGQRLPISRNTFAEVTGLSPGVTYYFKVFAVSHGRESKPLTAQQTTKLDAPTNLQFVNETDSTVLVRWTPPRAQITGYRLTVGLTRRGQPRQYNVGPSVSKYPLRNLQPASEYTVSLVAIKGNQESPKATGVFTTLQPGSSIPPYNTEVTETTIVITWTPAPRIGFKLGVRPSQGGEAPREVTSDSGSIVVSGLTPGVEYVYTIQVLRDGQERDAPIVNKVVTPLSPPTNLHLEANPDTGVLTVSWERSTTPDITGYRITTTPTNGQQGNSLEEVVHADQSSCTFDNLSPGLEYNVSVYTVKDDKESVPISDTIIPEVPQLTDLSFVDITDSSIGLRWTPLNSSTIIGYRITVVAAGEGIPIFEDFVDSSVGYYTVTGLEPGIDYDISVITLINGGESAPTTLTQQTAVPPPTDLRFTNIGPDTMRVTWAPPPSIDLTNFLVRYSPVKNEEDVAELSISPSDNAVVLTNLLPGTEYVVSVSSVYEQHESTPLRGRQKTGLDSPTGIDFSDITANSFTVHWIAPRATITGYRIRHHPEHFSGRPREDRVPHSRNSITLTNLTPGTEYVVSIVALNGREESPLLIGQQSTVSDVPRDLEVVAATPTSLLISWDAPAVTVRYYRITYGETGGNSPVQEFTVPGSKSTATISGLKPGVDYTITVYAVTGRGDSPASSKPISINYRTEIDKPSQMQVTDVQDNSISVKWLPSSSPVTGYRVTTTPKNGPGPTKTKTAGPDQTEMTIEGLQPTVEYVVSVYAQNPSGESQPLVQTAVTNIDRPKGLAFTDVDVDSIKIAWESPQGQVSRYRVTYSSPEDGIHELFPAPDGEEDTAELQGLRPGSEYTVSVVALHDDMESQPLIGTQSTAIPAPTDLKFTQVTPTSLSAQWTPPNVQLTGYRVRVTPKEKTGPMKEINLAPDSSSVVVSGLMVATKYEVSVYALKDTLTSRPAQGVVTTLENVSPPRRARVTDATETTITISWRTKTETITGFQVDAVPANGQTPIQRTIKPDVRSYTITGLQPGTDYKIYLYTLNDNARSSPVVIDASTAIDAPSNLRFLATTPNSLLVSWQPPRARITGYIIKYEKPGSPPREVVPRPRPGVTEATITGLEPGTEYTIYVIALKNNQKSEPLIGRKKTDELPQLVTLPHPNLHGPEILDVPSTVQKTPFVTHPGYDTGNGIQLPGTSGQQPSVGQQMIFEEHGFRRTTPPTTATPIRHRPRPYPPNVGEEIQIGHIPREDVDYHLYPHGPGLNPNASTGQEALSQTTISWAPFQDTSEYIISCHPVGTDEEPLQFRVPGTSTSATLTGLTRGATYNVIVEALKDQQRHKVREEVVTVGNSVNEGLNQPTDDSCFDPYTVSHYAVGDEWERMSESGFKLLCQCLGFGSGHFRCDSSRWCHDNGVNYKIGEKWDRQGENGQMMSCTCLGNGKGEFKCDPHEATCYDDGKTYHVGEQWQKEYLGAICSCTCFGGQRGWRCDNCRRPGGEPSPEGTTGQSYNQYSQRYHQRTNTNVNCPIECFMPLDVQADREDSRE

EDB-FN [2] = target: T1, EDB-FN; test: ZD2-Cy5.5 fluorescence binding to slides of human pancreatic cancer xenografts; set-up: incubation of ZD2-Cy5.5 with tumor slides of the above tumor xenografts; from tissue; host or cells: Sections of BXPC3, Capan-1, Panc 10.05 and Panc-1 tumour xenografts from female nude mice; normal pancreas and muscle as controls
Method: A ZD2 peptide (Thr-Val-Arg-The-Ser-Ala-Asp) targeted fluorescence tracer ZD2-Cy5.5 was synthesized according to a reported method to assess the binding of the peptide to EDB-FN in PaCa tumors. The binding specificity of ZD2 peptide to EDB-FN in pancreatic cancer has been tested by incubation of ZD2-Cy5.5 with tumor slides of the above tumor xenografts. […] ZD2 peptide is a promising targeting agent for specific binding of EDB-FN in PaCa tumors.

EDB-FN [3] = target: T1, EDB-FN; test: ZD2-Cy5.5 staining of human pancreatic specimens; format: binding; set-up: incubation of ZD2-Cy5.5 with tumor slides of the above tumor xenografts; from tissue; host or cells: Sections of BXPC3, Capan-1, Panc 10.05 and Panc-1 tumour xenografts from female nude mice; normal pancreas and muscle as controls
[4] = test system: PC3 human prostate cancer xenografts; test: PET/CT imaging of tracer uptake in PC3 tumors of tumor-bearing mice; format: in vivo
Method: (§1) The animal study has been approved by the Institutional Animal Care and Use Committee of the Case Western Reserve University (CWRU), […]. PC3 and LNCaP cells were acquired from the American Type Culture Collection (ATCC, Manassas, VA, USA) and cultured in Roswell Park Memorial Institute medium (Thermo Fisher Scientific, Waltham, MA) supplemented with 10% fetal bovine serum, 100 U/mL penicillin, and 0.1 mg/mL streptomycin in a humid incubator maintained at 37° C. and 5% CO2. Male athymic nude mice (4-6 weeks old) were acquired from the Case Comprehensive Cancer Center (Cleveland, OH, USA) and housed in the CWRU Animal Core Facility. Three million cells in high concentration Matrigel (Corning, Tewksbury, MA) were used for tumor inoculation. LNCaP cells were subcutaneously inoculated in the left flank of the mice. Four weeks later, PC3 cells were inoculated on the right flank of the same mice for PET imaging.
(§2) The radioisotope ^64Cu(II) was acquired from the University of Wisconsin-Madison (Madison, WI). The chelation of ZD2-PEG-DOTA with Cu(II) was first tested with cold CuCl2 in 0.1 N HCl aqueous solution under the same condition as radiolabeling. […] The formation of ZD2-DA-(Cu-DOTA) was verified by MALDI-TOF mass spectrometry (M+1: 1487.8, observed; 1486.04, calculated). […]

[5] = test system: LNCaP human prostate cancer xenografts; test: PET/CT imaging of tracer uptake in LNCaP tumors of tumor-bearing mice; format: in vivo; conditions: 22 h after injection, 7.4 MBq (200 μCi) per mouse i.v., N=4
Method: as §1, §2

TVRTSAD-OH [ZD2 peptide, Thr-Val-Arg-Thr-Ser-Ala-Asp]
water solubility (Water solubility): highly water-soluble
binding in normal tissue (EDB-FN [1]): nonbinding
binding to low-grade tumor (EDB-FN [1]): weak binding affinity
binding toward high-grade prostate tumor (EDB-FN [1]): strong binding affinity

ZD2-Cy5.5: ZD2 peptide targeted fluorescence tracer synthesized according to a reported method (TVRTSAD; also: Cy5.5 fluorescence tracer attached, site not given here)
binding to EDB-FN in PaCa after pre-incubation with BC-1 anti-EDB-FN monoclonal antibody (EDB-FN [2]; BC-1/ZD2): blocked
binding to normal pancreas and muscle (EDB-FN [2]; tissue slides): No significant binding
binding to BXPC3, Capan-1, Panc 10.05 and Panc-1 tumor tissues (EDB-FN [2]; tumor xenograft slides): strong binding
fluorescence staining of precancerous pancreatic intraepithelial neoplasia (EDB-FN [3]; human PanIN): some fluorescence intensity
fluorescence staining of normal pancreas (EDB-FN [3]; human normal pancreas): little fluorescence
fluorescence staining of human PaCa specimen (EDB-FN [3]; human pancreatic cancer): strong red fluorescence

ZD2-DA-(^64Cu-DOTA): ZD2 peptide (TVRTSAD) linked via two repeats of 8-amino-3,6-dioxaoctanoic acid to DOTA, complexed with 64Cu ({DOTA-AEEA-AEEA}-TVRTSAD; also: 64Cu chelated by DOTA)
accumulation of PET tracer in PC3 tumors compared to LNCaP tumors ([4]; 22 h, P<0.05): over two-folds higher
accumulation of PET tracer in PC3 tumors (ROI) ([4]; 22 h after injection, 7.4 MBq (200 μCi) per mouse i.v., N=4): 7711±1994 Bq/mL
accumulation of PET tracer in LNCaP tumors (ROI) [5]: 3213±1511 Bq/mL
